# Laboratory results taken from ChEMBL document CHEMBL5042474, “Structure-Guided Discovery of Potent and Selective DYRK1A Inhibitors” (J Med Chem, 2021).
# Assays:
# [1] = biological target: Homeodomain-interacting protein kinase 1 (Homo sapiens) (UniProt Q86Z02); assay: Residual activity of HIPK1 (unknown origin) at 10 nM using Ulight-MBP as substrate and ATP as co-substrate incubated for 40 mins and measured after 1 hr by TR-FRET assay relative to control; conditions: time 100.0 min
# A2780 [2] = assay: Antitumour activity against human A2780 cells xenografted in Balb/c mouse assessed as tumor volume T/C at 18.75 mg/kg, po bid for 14 days relative to control; conditions: time 14 day
# A2780 [3] = assay: Antitumour activity against human A2780 cells xenografted in Balb/c mouse assessed as tumor volume T/C at 9.5 mg/kg, po bid for 14 days relative to control; conditions: time 14 day
# A2780 [4] = assay: Antitumor activity against human A2780 cells xenografted in BALB/c nu/nu mouse assessed as reduction in DYRK1A autophosphorylation of S520 residue at 37.5 mg/kg, po measured after 2 hrs by western blotting analysis relative to control; type: functional; design: scale not given: the % may be the effect or the level left
# [5] = biological target: Dual specificity tyrosine-phosphorylation-regulated kinase 1A (Homo sapiens, UniProt Q13627); assay: Residual activity of DYRK1A (unknown origin) at 10 nM using Ulight-MBP as substrate and ATP as co-substrate incubated for 40 mins and measured after 1 hr by TR-FRET assay relative to control; conditions: time 100.0 min
# [6] = Toxicity in Balb/c nude mouse xenografted with human A2780 cells assessed as decrease in body weight at 9.5 mg/kg, po bid for 14 days relative to control; type: organism-based; design: scale not given: the % may be the effect or the level left; conditions: in vivo, 336 h, time 14 day
# [7] = biological target: Dual specificity protein kinase CLK2 (Homo sapiens) (UniProt P49760); assay: Residual activity of CLK2 (unknown origin) at 10 nM using Ulight-MBP as substrate and ATP as co-substrate incubated for 40 mins and measured after 1 hr by TR-FRET assay relative to control; conditions: time 100.0 min
# A2780 [8] = assay: Antitumour activity against human A2780 cells xenografted in BALB/c nu/nu mouse assessed as reduction in DYRK1A autophosphorylation of S520 residue at 9.375 mg/kg, po measured after 6 hrs by western blotting analysis relative to control; type: functional; design: scale not given: the % may be the effect or the level left
# RS4-11 [9] = assay: Antitumor activity against human RS4-11 cells xenografted in BALB/c nu/nu mouse assessed as reduction in DYRK1A autophosphorylation of S520 residue at 6.25 mg/kg, po measured after 2 hrs by western blotting analysis relative to control; type: functional; design: scale not given: the % may be the effect or the level left
# [10] = Toxicity in Balb/c nude mouse xenografted with human A2780 cells assessed as decrease in body weight at 4.75 mg/kg, po bid for 14 days relative to control; type: organism-based; design: scale not given: the % may be the effect or the level left; conditions: in vivo, 336 h, time 14 day
# A2780 [11] = assay: cells; conditions: Homo sapiens, A2780, 120 h
# C-33-A = assay: cells; conditions: Homo sapiens
# A2780 [12] = assay: Antitumor activity against human A2780 cells xenografted in BALB/c nu/nu mouse assessed as reduction in DYRK1A autophosphorylation of S520 residue at 18.75 mg/kg, po measured after 6 hrs by western blotting analysis relative to control; type: functional; design: scale not given: the % may be the effect or the level left
# A2780 [13] = assay: Antitumor activity against human A2780 cells xenografted in BALB/c […] mouse assessed as reduction in DYRK1A autophosphorylation of S520 residue at 75 mg/kg, po measured after 6 hrs by western blotting analysis relative to control; type: functional; design: scale not given: the % may be the effect or the level left
# A2780 [14] = assay: Antitumor activity against human A2780 cells xenografted in BALB/c nu/nu mouse assessed as reduction in DYRK1A autophosphorylation of S520 residue at 9.375 mg/kg, po measured after 2 hrs by western blotting analysis relative to control; type: functional; design: scale not given: the % may be the effect or the level left
# hERG (KCNH2) = hERG (KCNH2) (Homo sapiens, UniProt Q12809); assay: Inhibition of hERG at 10 uM by patch clamp method relative to control; type: toxicity
# SK-N-MC [15] = assay: cells; conditions: Homo sapiens, 120 h
# [16] = Plasma clearance in BALB/c nu/nu mouse at 3 mg/kg, po; type: ADME, organism-based
# A2780 [17] = assay: Antitumor activity against human A2780 cells xenografted in BALB/c […] mouse assessed as reduction in DYRK1A autophosphorylation of S520 residue at 75 mg/kg, po measured after 2 hrs by western blotting analysis relative to control; type: functional; design: scale not given: the % may be the effect or the level left
# A2780 [18] = assay: cells; conditions: Homo sapiens
# SK-N-MC [19] = assay: cells; conditions: Homo sapiens
# [20] = biological target: Dual specificity protein kinase CLK4 (Homo sapiens) (UniProt Q9HAZ1); assay: Residual activity of CLK4 (unknown origin) at 10 nM using Ulight-MBP as substrate and ATP as co-substrate incubated for 40 mins and measured after 1 hr by TR-FRET assay relative to control; conditions: time 100.0 min
# RS4-11 [21] = assay: Antitumor activity against human RS4-11 cells xenografted in BALB/c nu/nu mouse assessed as reduction in DYRK1A autophosphorylation of S520 residue at 12.5 mg/kg, po measured after 6 hrs by western blotting analysis relative to control; type: functional; design: scale not given: the % may be the effect or the level left
# A2780 [22] = assay: Antitumor activity against human A2780 cells xenografted in Balb/c mouse assessed as inhibition of tumor growth at 18.75 mg/kg, po bid for 14 days relative to control; type: functional; conditions: 336 h, time 14 day, read-out: TGI
# A2780 [23] = assay: Antitumor activity against human A2780 cells xenografted in BALB/c […] mouse assessed as reduction in DYRK1A autophosphorylation of S520 residue at 37.5 mg/kg, po measured after 6 hrs by western blotting analysis relative to control; type: functional; design: scale not given: the % may be the effect or the level left
# A2780 [24] = assay: Antitumor activity against human A2780 cells xenografted in Balb/c mouse assessed as inhibition of tumor growth at 37.5 mg/kg, po bid for 14 days relative to control; type: functional; conditions: 336 h, time 14 day, read-out: TGI
# RS4-11 [25] = assay: Antitumor activity against human RS4-11 cells xenografted in BALB/c nu/nu mouse assessed as reduction in DYRK1A autophosphorylation of S520 residue at 25 mg/kg, po measured after 2 hrs by western blotting analysis relative to control; type: functional; design: scale not given: the % may be the effect or the level left
# A2780 [26] = assay: Antitumour activity against human A2780 cells xenografted in mouse assessed as reduction in DYRK1A autophosphorylation of S520 residue at 4.687 mg/kg, po meausred after 6 hrs by western blotting analysis relative to control; type: functional; design: scale not given: the % may be the effect or the level left
# [27] = Toxicity in Balb/c nude mouse xenografted with human A2780 cells assessed as decrease in body weight at 75 mg/kg, po bid for 14 days relative to control; type: organism-based; design: scale not given: the % may be the effect or the level left; conditions: in vivo, 336 h, time 14 day
# [28] = biological target: Dual specificity tyrosine-phosphorylation-regulated kinase 1B (Homo sapiens) (UniProt Q9Y463); assay: Residual activity of DYRK1B (unknown origin) at 10 nM using Ulight-MBP as substrate and ATP as co-substrate incubated for 40 mins and measured after 1 hr by TR-FRET assay relative to control; conditions: time 100.0 min
# Sequence of Dual specificity tyrosine-phosphorylation-regulated kinase 1B (Homo sapiens) (Q9Y463 whole entry, looked up): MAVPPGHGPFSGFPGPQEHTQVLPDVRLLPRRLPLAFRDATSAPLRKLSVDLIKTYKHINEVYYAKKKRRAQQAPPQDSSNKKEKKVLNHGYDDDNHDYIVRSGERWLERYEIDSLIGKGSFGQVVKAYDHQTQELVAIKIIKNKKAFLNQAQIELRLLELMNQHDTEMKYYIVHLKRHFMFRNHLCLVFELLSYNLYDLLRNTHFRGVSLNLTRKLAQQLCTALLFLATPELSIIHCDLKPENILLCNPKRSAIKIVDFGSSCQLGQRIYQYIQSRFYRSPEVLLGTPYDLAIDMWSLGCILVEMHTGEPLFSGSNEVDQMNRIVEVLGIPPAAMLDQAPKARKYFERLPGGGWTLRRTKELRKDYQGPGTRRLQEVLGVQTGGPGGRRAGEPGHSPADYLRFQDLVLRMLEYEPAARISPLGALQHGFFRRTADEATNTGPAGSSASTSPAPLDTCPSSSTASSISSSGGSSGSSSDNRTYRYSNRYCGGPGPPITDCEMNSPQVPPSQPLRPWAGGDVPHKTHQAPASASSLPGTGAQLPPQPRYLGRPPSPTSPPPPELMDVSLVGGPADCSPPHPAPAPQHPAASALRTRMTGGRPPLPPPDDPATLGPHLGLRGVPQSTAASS
# Sequence of hERG (KCNH2) (Q12809 whole entry): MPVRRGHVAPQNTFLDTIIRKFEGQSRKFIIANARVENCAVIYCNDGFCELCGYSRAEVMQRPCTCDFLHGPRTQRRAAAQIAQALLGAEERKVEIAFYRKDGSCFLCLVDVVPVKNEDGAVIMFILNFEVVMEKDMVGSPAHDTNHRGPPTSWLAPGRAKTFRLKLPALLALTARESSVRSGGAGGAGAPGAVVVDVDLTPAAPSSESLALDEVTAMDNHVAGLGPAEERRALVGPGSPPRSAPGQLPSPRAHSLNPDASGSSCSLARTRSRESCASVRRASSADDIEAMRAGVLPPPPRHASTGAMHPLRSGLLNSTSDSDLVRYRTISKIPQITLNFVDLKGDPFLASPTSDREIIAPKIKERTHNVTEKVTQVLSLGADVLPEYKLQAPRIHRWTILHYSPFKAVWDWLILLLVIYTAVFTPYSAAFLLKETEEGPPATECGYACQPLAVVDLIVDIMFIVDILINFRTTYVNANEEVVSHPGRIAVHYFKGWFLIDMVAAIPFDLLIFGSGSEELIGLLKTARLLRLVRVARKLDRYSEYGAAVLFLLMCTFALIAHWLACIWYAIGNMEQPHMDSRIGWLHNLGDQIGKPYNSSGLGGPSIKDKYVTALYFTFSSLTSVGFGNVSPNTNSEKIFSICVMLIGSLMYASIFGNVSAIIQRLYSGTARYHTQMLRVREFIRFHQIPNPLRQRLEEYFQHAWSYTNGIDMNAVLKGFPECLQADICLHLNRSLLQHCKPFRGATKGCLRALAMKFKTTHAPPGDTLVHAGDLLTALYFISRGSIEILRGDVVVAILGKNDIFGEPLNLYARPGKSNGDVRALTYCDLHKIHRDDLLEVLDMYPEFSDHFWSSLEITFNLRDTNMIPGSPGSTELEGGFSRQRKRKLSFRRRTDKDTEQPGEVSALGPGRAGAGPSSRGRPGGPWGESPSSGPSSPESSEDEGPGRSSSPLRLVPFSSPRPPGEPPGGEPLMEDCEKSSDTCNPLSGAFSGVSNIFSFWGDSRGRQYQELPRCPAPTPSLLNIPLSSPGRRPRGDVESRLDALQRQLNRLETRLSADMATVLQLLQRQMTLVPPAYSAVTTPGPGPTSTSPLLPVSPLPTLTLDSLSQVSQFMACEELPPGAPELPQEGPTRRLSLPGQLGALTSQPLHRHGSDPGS
# Sequence of Homeodomain-interacting protein kinase 1 (Homo sapiens) (Q86Z02 whole entry, looked up): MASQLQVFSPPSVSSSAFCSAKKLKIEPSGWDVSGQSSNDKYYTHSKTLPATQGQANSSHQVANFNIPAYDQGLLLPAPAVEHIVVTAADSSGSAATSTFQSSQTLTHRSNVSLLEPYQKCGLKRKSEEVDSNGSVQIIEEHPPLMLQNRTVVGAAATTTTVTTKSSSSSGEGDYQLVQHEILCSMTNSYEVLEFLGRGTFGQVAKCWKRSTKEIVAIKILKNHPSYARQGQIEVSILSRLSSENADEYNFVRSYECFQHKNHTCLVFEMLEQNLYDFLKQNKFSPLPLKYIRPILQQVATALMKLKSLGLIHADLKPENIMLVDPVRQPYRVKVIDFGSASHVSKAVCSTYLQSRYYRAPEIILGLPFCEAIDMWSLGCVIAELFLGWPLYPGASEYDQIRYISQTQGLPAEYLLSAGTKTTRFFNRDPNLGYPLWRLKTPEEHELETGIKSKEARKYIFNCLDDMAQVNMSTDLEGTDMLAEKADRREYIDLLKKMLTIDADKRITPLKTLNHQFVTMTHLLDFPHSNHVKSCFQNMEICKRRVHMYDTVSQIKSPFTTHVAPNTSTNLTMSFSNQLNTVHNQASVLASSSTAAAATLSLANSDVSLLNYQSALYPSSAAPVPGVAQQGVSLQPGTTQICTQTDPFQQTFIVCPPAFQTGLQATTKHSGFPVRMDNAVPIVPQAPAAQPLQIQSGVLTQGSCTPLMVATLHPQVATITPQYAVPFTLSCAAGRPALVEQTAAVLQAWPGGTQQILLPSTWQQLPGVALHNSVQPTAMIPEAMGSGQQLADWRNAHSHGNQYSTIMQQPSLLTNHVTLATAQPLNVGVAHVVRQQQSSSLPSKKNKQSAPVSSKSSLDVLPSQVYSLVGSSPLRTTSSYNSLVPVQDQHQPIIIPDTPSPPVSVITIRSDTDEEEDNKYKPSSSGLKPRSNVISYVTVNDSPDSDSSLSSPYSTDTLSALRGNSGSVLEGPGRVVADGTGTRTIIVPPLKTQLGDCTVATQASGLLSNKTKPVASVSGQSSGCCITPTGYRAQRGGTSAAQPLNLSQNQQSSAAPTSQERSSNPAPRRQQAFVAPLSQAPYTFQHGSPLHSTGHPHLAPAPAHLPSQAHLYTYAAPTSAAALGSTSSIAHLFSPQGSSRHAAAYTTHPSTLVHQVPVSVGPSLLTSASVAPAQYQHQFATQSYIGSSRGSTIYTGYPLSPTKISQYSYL
# Sequence of Dual specificity protein kinase CLK4 (Homo sapiens) (Q9HAZ1 whole entry, looked up): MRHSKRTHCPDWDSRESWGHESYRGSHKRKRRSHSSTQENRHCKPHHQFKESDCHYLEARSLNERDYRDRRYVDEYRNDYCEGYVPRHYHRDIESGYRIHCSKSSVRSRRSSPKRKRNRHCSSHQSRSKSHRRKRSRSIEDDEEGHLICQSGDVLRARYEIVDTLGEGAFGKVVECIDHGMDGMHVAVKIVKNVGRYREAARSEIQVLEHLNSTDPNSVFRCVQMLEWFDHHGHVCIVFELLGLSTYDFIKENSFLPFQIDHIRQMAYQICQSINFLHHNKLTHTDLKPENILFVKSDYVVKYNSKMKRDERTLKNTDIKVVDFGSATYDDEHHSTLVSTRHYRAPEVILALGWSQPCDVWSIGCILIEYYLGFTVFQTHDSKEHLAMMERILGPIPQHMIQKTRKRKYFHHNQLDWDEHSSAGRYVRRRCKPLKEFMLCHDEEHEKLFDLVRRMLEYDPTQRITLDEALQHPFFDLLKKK
# Sequence of Dual specificity protein kinase CLK2 (Homo sapiens) (P49760 whole entry, looked up): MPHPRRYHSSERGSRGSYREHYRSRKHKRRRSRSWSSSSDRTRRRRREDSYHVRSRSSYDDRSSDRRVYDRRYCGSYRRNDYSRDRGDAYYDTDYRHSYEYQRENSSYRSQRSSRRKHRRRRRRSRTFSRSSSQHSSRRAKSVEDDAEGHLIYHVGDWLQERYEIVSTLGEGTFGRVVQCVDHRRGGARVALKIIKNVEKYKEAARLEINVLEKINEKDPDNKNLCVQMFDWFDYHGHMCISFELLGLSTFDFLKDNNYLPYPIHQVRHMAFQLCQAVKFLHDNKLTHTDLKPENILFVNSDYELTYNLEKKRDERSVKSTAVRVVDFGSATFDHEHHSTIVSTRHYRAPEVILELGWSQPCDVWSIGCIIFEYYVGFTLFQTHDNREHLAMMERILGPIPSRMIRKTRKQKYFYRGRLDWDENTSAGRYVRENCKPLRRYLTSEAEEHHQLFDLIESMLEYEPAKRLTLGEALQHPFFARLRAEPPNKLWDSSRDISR
structure (smiles),measurement,setting,value
Cc1nc2ccc(-c3cc(N)nc(N)c3)nc2n1C1CC1,residual activity,[1],72%
same,T/C,A2780 [2],63%
same,T/C,A2780 [3],95%
same,Activity,A2780 [4],82%
same,residual activity,[5],9.2%
same,Activity,[6],8.7%
same,residual activity,[7],40%
same,Activity,A2780 [8],10%
same,Activity,RS4-11 [9],77%
same,Activity,[10],1.5%
same,IC50,A2780 [11],1.54 µM
same,IC50,C-33-A,0.157 µM
same,Activity,A2780 [12],80%
same,Activity,A2780 [13],92%
same,Activity,A2780 [14],60%
same,inhibition at 10 µM,hERG (KCNH2),52%
same,IC50,SK-N-MC [15],0.958 µM
same,CL/F,[16],226 mL/min/kg
same,Activity,A2780 [17],80%
same,IC50,A2780 [18],0.126 µM
same,IC50,SK-N-MC [19],0.077 µM
same,residual activity,[20],52%
same,Activity,RS4-11 [21],84%
same,inhibition in vivo at 18.75 mg/kg,A2780 [22],55%
same,Activity,A2780 [23],95%
same,inhibition in vivo at 37.5 mg/kg,A2780 [24],63%
same,Activity,RS4-11 [25],87%
same,Activity,A2780 [26],0%
same,Activity,[27],16.3%
same,residual activity,[28],20%
